Experimental data from patent US12486278B2, “MASP-2 inhibitors and methods of use” (Omeros Corporation, priority 2019, dated 2025).
Where a name gives a salt, the structure may show the parent alone.

The compounds below were run against T1, MASP-2 (CCP1-CCP2-SP) (Homo sapiens, UniProt O00187) (assay: Enzymatic Assay for MASP-2 (fluorogenic substrate)). Details: fluorogenic substrate based on C2 cleavage site; room temperature, 20 min; 20 mM HEPES pH 7.4, 140 mM NaCl, 0.1% Tween 20.
T1 construct: 15 μL of Enzyme MASP-2 (CCP1-CCP2-SP) in Assay Buffer
Type: biochemical
Protocol: The MASP-2 assay utilizes a fluorogenic substrate, based on the cleavage site for its natural substrate C2. The assay is run at room temperature in an assay buffer containing 20 mM HEPES, pH 7.4, 140 mM NaCl and 0.1% Tween 20. Assay parameters are adjusted such that the assay is linear with respect to time, enzyme, and substrate concentrations. Under these optimized assays conditions, IC50 values are equivalent to Ki values, except in a few cases of “tight binding” inhibitors. Cases of “tight binding” or possible “slow binding” inhibitors are handled by the methods described in Copeland R. A. (2013) Evaluation of Enzyme Inhibitors in Drug Discovery. 2nd Ed., John Wiley and Sons, Inc., Chapters 5-7.
The MASP-2 assay protocol is carried out as follows. Test compounds are serially diluted in DMSO and then 100 nL of each dilution is transferred to the assay plate(s). 10 μL of Assay Buffer is added, followed by 15 μL of Enzyme MASP-2 (CCP1-CCP2-SP) in Assay Buffer. 15 μL of Substrate in Assay Buffer is then added and mixed to start the reactions. After 20 min at room temperature, 15 μL of a stop solution (0.1 M acetic acid) is added, mixed and the plates are read on a SpectraMax i3x Microplate Reader and exported as Excel files. Each assay plate included a “no inhibitor” (DMSO Only) control, a “no enzyme” control and a reference inhibitor control. % Activity values=100*(average test comp. fluorescence−average “no enzyme” fluorescence)/(average “DMSO only” fluorescence−average “no enzyme” fluorescence). IC50 and Ki values are very reproducible, falling well within ±2-fold.

T1 sequence (O00187 445-686 limits assumed): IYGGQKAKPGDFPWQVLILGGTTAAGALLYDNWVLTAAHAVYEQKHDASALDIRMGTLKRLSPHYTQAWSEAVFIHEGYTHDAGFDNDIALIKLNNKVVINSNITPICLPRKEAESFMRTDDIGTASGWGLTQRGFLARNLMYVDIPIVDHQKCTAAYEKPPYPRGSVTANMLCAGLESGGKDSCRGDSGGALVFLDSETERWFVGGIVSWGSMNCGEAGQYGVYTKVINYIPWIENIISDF
T1 sequence (O00187 298-444 partner limits assumed): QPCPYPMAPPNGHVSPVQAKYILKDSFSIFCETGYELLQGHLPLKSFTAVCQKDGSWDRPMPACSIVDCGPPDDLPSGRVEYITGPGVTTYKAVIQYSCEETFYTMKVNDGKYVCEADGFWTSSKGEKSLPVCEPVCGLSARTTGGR

| Ki [nM] | Structure (SMILES) |
| --- | --- |
| < 500 | Cc1nc(N)ccc1CNC(=O)[C@H](C)NC(=O)[C@H]1C[C@H](Cc2cccc(C(=O)O)c2)CN1 [Compound I-48, 3-(((3S,5R)-5-(((S)-1-(((6-Amino-2-Methylpyridin-3-Yl)Methyl)Amino)-1-Oxopropan-2-Yl)Carbamoyl)Pyrrolidin-3-Yl)Methyl)Benzoic Acid Di-Trifluoroacetate] |
| < 500 | Cc1nc(N)ccc1CNC(=O)[C@@H]1CCN1C(=O)[C@H]1C[C@H](Cc2ccc(-c3ccccc3)cc2)CN1 [Compound I-62, (S)-1-((2R,4S)-4-([1,1′-Biphenyl]-4-Ylmethyl)Pyrrolidine-2-Carbonyl)-N-((6-Amino-2-Methylpyridin-3-Yl)Methyl)Azetidine-2-Carboxamide Di-Trifluoroacetate] |
| < 500 | C[C@H](NC(=O)[C@H]1C[C@@H](c2ccc(-c3cccnc3)cc2)CCN1)C(=O)NCc1cc2cnccc2[nH]1 [Compound I-73, (2R,4S)—N—((S)-1-(((1H-Pyrrolo[3,2-C]Pyridin-2-Yl)Methyl)Amino)-1-Oxopropan-2-Yl)-4-(4-(Pyridin-3-Yl)Phenyl)Piperidine-2-Carboxamide Tri-Trifluoroacetate] |
| < 500 | C[C@H](NC(=O)[C@H]1C[C@H](Cc2ccc(F)c(Cl)c2)CN1)C(=O)NCc1cc2cnccc2[nH]1 [Compound I-2, (2R,4S)—N—((S)-1-(((1H-Pyrrolo[3,2-C]Pyridin-2-Yl)Methyl)Amino)-1-Oxopropan-2-Yl)-4-(3-Chloro-4-Fluorobenzyl)Pyrrolidine-2-Carboxamide Di-Trifluoroacetate] |
| < 500 | C[C@H](NC(=O)[C@H]1C[C@@H](c2ccccc2)CCN1CCC(=O)O)C(=O)NCc1ccc(C(=N)N)cc1 [Compound I-32, 3-((2R,4S)-2-(((S)-1-((4-Carbamimidoylbenzyl)Amino)-1-Oxopropan-2-Yl)Carbamoyl)-4-Phenylpiperidin-1-Yl)Propanoic Acid Di-Trifluoroacetate] |
| < 500 | Cc1nc(N)ccc1CNC(=O)[C@H](C)NC(=O)[C@H]1C[C@H](Cc2ccc(C#N)s2)CN1 [Compound I-86, (2R,4R)—N—((S)-1-(((6-Amino-2-Methylpyridin-3-Yl)Methyl)Amino)-1-Oxopropan-2-Yl)-4-((5-Cyanothiophen-2-Yl)Methyl)Pyrrolidine-2-Carboxamide Dihydrochloride] |
| < 500 | C[C@H](NC(=O)[C@H]1C[C@@H](c2cccc(-n3cccn3)c2)CCN1)C(=O)NCc1cc(Cl)ccc1-n1cnnn1 [Compound I-79, (2R,4S)-4-(3-(1H-Pyrazol-1-Yl)Phenyl)-N—((S)-1-((5-Chloro-2-(1H-Tetrazol-1-Yl)Benzyl)Amino)-1-Oxopropan-2-Yl)Piperidine-2-Carboxamide Dihydrochloride] |
| < 500 | COC(=O)c1cccc(C[C@@H]2CN[C@@H](C(=O)N[C@@H](C)C(=O)NCc3ccc(N)nc3C)C2)c1 [Compound I-47, Methyl 3-(((3S,5R)-5-(((S)-1-(((6-Amino-2-Methylpyridin-3-Yl)Methyl)Amino)-1-Oxopropan-2-Yl)Carbamoyl)Pyrrolidin-3-Yl)Methyl)Benzoate Dihydrochloride] |
| 2500 to 10000 | C[C@H](NC(=O)[C@H]1C[C@@H](c2ccccc2)CCN1)C(=O)NCc1ccc(C#N)s1 [Compound I-92, (2R,4S)—N—((S)-1-(((5-Cyanothiophen-2-yl)methyl)amino)-1-oxopropan-2-yl)-4-phenylpiperidine-2-carboxamide hydrochloride] |
| < 500 | C[C@H](NC(=O)[C@H]1C[C@@H](c2ccccc2)CCN1CCNS(C)(=O)=O)C(=O)NCc1cc2cnccc2[nH]1 [Compound I-42, (2R,4S)—N—((S)-1-(((1H-Pyrrolo[3,2-C]Pyridin-2-Yl)Methyl)Amino)-1-Oxopropan-2-Yl)-1-(2-(Methylsulfonamido)Ethyl)-4-Phenylpiperidine-2-Carboxamide Di-Trifluoroacetate] |
| < 500 | C[C@H](NC(=O)[C@H]1C[C@@H](c2ccc(-c3ccccc3)cc2)CCN1)C(=O)NCc1ccc(C(=N)N)cc1 [Compound I-69, (2R,4S)-4-([1,1′-Biphenyl]-4-Yl)-N—((S)-1-((4-Carbamimidoylbenzyl)Amino)-1-Oxopropan-2-Yl)Piperidine-2-Carboxamide Di-Trifluoroacetate] |
| > 10000 | C[C@H](NC(=O)[C@H]1C[C@H](c2ccccc2)CN1)C(=O)NCc1cc2c(Br)cncc2[nH]1 [Compound I-1, (2R,4R)—N—((S)-1-(((4-bromo-1H-pyrrolo[2,3-c]pyridin-2-yl)methyl)amino)-1-oxopropan-2-yl)-4-phenylpyrrolidine-2-carboxamide di-trifluoroacetate] |
| < 500 | Cc1nc(N)ccc1CNC(=O)[C@H]1CC(F)(F)CN1C(=O)[C@@H]1C[C@@H](Cc2ccc(Br)cc2)CN1 [Compound I-61, (R)—N-((6-Amino-2-Methylpyridin-3-Yl)Methyl)-1-((2S,4R)-4-(4-Bromobenzyl)Pyrrolidine-2-Carbonyl)-4,4-Difluoropyrrolidine-2-Carboxamide Dihydrochloride] |
| < 500 | CCOC(=O)CCN1CC[C@H](c2ccccc2)C[C@@H]1C(=O)N[C@@H](C)C(=O)NCc1ccc(C(=N)N)cc1 [Compound I-31, Ethyl 3-((2R,4S)-2-(((S)-1-((4-Carbamimidoylbenzyl)Amino)-1-Oxopropan-2-Yl)Carbamoyl)-4-Phenylpiperidin-1-Yl)Propanoate] |
| 500 to 2500 | C[C@H](NC(=O)[C@H]1C[C@H](c2ccccc2)CN1)C(=O)NCc1cc2ncccc2[nH]1 [Compound I-6, (2R,4R)—N—((S)-1-(((1H-Pyrrolo[3,2-b]pyridin-2-yl)methyl)amino)-1-oxopropan-2-yl)-4-phenylpyrrolidine-2-carboxamide di-trifluoroacetate] |
| < 500 | CC(NC(=O)[C@H]1C[C@@H](c2ccccc2)CCN1CC(=O)O)C(=O)NCc1cc2cnccc2[nH]1 (stereo in doubt) [Compound I-105, 2-((2R,4S)-2-(((S)-1-(((1H-pyrrolo[3,2-c]pyridin-2-yl)methyl)amino)-1-oxopropan-2-yl)carbamoyl)-4-phenylpiperidin-1-yl)acetic acid di-trifluoroacetate] |
| < 500 | C[C@H](NC(=O)[C@H]1C[C@@H](c2ccc(-c3ccccc3)cc2)CCN1)C(=O)NCc1cc2cnccc2[nH]1 [Compound I-74, (2R,4S)—N—((S)-1-(((1H-Pyrrolo[3,2-C]Pyridin-2-Yl)Methyl)Amino)-1-Oxopropan-2-Yl)-4-([1,1′-Biphenyl]-4-Yl)Piperidine-2-Carboxamide Di-Trifluoroacetate] |
| > 10000 | C[C@H](NC(=O)[C@H]1C[C@H](Cc2ccccc2)CN1)C(=O)NCc1ccc2ncc(Cl)n2c1 [Compound I-60, (2R,4S)-4-Benzyl-N—((S)-1-(((3-Chloroimidazo[1,2-A]Pyridin-6-Yl)Methyl)Amino)-1-Oxopropan-2-Yl)Pyrrolidine-2-Carboxamide Trifluoroacetate] |
| < 500 | C[C@H](NC(=O)[C@H]1C[C@@H](c2cc3ccccc3s2)CCN1)C(=O)NCc1ccc(C(=N)N)cc1 [Compound I-71, (2R,4S)-4-(Benzo[B]Thiophen-2-Yl)-N—((S)-1-((4-Carbamimidoylbenzyl)Amino)-1-Oxopropan-2-Yl)Piperidine-2-Carboxamide Di-Trifluoroacetate] |
| < 500 | C[C@H](NC(=O)[C@H]1C[C@H](Cc2ccc(F)c(Cl)c2)CN1)C(=O)NCc1cnc2[nH]cc(Cl)c2c1 [Compound I-25, (2R,4S)—N—((S)-1-(((3-Chloro-1H-Pyrrolo[2,3-B]Pyridin-5-Yl)Methyl)Amino)-1-Oxopropan-2-Yl)-4-(3-Chloro-4-Fluorobenzyl)Pyrrolidine-2-Carboxamide Trifluoroacetate] |
| < 500 | C[C@H](NC(=O)[C@H]1C[C@H](Cc2ccccc2)CN1)C(=O)NCc1cnc2scc(Cl)c2c1 [Compound I-11, (2R,4S)-4-Benzyl-N—((S)-1-(((3-Chlorothieno[2,3-B]Pyridin-5-Yl)Methyl)Amino)-1-Oxopropan-2-Yl)Pyrrolidine-2-Carboxamide Trifluoroacetate] |
| < 500 | C[C@H](NC(=O)[C@H]1C[C@@H](c2cccc(-n3cccn3)c2)CCN1)C(=O)NCc1ccc(C(=N)N)cc1 [Compound I-77, (2R,4S)-4-(3-(1H-Pyrazol-1-Yl)Phenyl)-N—((S)-1-((4-Carbamimidoylbenzyl)Amino)-1-Oxopropan-2-Yl)Piperidine-2-Carboxamide Dihydrochloride] |
| < 500 | C[C@H](NC(=O)[C@H]1C[C@H](Cc2ccc(F)cc2)CN1CCC(=O)O)C(=O)NCc1ccc(C(=N)N)cc1 [Compound I-37, 3-((2R,4S)-2-(((S)-1-((4-Carbamimidoylbenzyl)Amino)-1-Oxopropan-2-Yl)Carbamoyl)-4-(4-Fluorobenzyl)Pyrrolidin-1-Yl)Propanoic Acid Di-Trifluoroacetate] |
| < 500 | C[C@H](NC(=O)[C@H]1C[C@@H](c2ccccc2)CCN1CC(=O)O)C(=O)NCc1ccc(C(=N)N)cc1 [Compound I-34, 2-((2R,4S)-2-(((S)-1-((4-Carbamimidoylbenzyl)Amino)-1-Oxopropan-2-Yl)Carbamoyl)-4-Phenylpiperidin-1-Yl)Acetic Acid Di-Trifluoroacetate] |
